This note sets out measurements from patent US8207144B2, “Sodium salt of disaccharide compound, production method and use of same” (Eisai R & D Management Co., Ltd., priority 2006, dated 2012).

The data set in a line: Storage stability test (formation of impurities A, B and C by HPLC). Format: physicochemical. The following applies: HPLC area percent. The procedure: Consequently, formation rates (converted to monthly rates) were calculated for each of the three types of decomposition products (impurities A, B and C) using the area percent.
Where [1] appears, read: storage at 25° C. in screw-cap glass bottle, day 0.
[2] abbreviates: storage at 25° C., day 1.0, listed as 3.67 Na Salt.
Setting [3] is: storage at 25° C., day 1.9, listed as 3.67 Na Salt.
The mark [4] stands for this setting: storage at 25° C., day 4.5, listed as 3.67 Na Salt.
Setting [5] is: storage at 25° C., day 1.0, listed as 3.93 Na Salt.
[6] abbreviates: storage at 25° C., day 1.9, listed as 3.93 Na Salt.
[7] abbreviates: storage at 25° C., day 4.5, listed as 3.93 Na Salt.

With `CCCCCC/C=C\CCCCCCCCCC(=O)NC1C(OCC2OC(OP(=O)([O-])[O-])C(NC(=O)CC(=O)CCCCCCCCCCC)C(OCCCCCCCCCC)C2O)OC(COC)C(OP(=O)([O-])[O-])C1OCCC(CCCCCCC)OC.[Na+].[Na+].[Na+].[Na+]` (stereo not drawn) [Comparative Example 1, reference compound], the “Impurity A” value is, setting by setting: under setting [1], 0.00%; (storage at 25° C., day 1.0) 0.06%; (storage at 25° C., day 1.9) 0.08%; (storage at 25° C., day 4.5) 0.12%. The “Impurity B” value by setting is: (storage at 25° C., day 0) 0.18%; (storage at 25° C., day 1.0) 0.36%; (storage at 25° C., day 1.9) 0.48%; (storage at 25° C., day 4.5) 0.67%. The “Impurity C” value runs as follows: (storage at 25° C., day 0) 0.00%; (storage at 25° C., day 1.0) 0.00%; (storage at 25° C., day 1.9) 0.00%; (storage at 25° C., day 4.5) 0.00%; (storage at 25° C., day 8.8) 0.00%; (storage at 25° C., day 29.5) 0.03%.

In the case of `CCCCCC/C=C\CCCCCCCCCC(=O)N[C@H]1[C@H](OC[C@H]2O[C@H](OP(=O)(O)O)[C@H](NC(=O)CC(=O)CCCCCCCCCCC)[C@@H](OCCCCCCCCCC)[C@@H]2O)O[C@H](COC)[C@@H](OP(=O)(O)O)[C@@H]1OCC[C@@H](CCCCCCC)OC` [Example 2], the “Impurity A” value is, setting by setting: under setting [1], 0.00%; (storage at 25° C., day 18) 0.00%. In addition, the “Impurity B” value by setting is: (storage at 25° C., day 0) 0.00%; (storage at 25° C., day 18) 0.00%. Moreover, the “Impurity C” value by setting is: (storage at 25° C., day 0) 0.00%; (storage at 25° C., day 18) 0.17%.

Take `CCCCCC/C=C\CCCCCCCCCC(=O)N[C@H]1[C@H](OC[C@H]2O[C@H](OP(=O)([O-])[O-])[C@H](NC(=O)CC(=O)CCCCCCCCCCC)[C@@H](OCCCCCCCCCC)[C@@H]2O)O[C@H](COC)[C@@H](OP(=O)([O-])[O-])[C@@H]1OCC[C@@H](CCCCCCC)OC.[Na+].[Na+].[Na+].[Na+]` [Example 3]: the “Impurity A” value stood at 0.00% under setting [1], 0.00% under setting [2], 0.01% under setting [3] and 0.01% under setting [4]. Moreover, the “Impurity C” value (storage at 25° C., day 0) is listed as 0.00%; the “Impurity C” value (storage at 25° C., day 1.0) came to 0.00%; the “Impurity C” value (storage at 25° C., day 1.9) amounted to 0.00%; the “Impurity C” value (storage at 25° C., day 4.5) is 0.01%; the “Impurity C” value (storage at 25° C., day 8.8) is given as 0.01%; the “Impurity C” value (storage at 25° C., day 29.5, listed as 3.67 Na Salt) is recorded as 0.07%. Besides, the “Impurity B” value is reported as 0.08% (storage at 25° C., day 0, listed as 3.67 Na Salt); 0.12% under setting [2]; 0.09% under setting [3]; 0.13% under setting [4].

Turning to `CCCCCC/C=C\CCCCCCCCCC(=O)N[C@H]1[C@H](OC[C@H]2O[C@H](OP(=O)([O-])[O-])[C@H](NC(=O)CC(=O)CCCCCCCCCCC)[C@@H](OCCCCCCCCCC)[C@@H]2O)O[C@H](COC)[C@@H](OP(=O)([O-])[O-])[C@@H]1OCC[C@@H](CCCCCCC)OC.[Na+].[Na+].[Na+].[Na+]` [Example 4], the “Impurity A” value is, setting by setting: under setting [1], 0.00%; under setting [5], 0.03%; under setting [6], 0.04%; under setting [7], 0.06%. For the same molecule, the “Impurity C” value (storage at 25° C., day 0) was determined as 0.00%; the “Impurity C” value (storage at 25° C., day 1.0) worked out at 0.00%; the “Impurity C” value (storage at 25° C., day 1.9) was determined as 0.00%; the “Impurity C” value (storage at 25° C., day 4.5) amounted to 0.01%; the “Impurity C” value (storage at 25° C., day 8.8) came out at 0.01%; the “Impurity C” value (storage at 25° C., day 29.5, listed as 3.93 Na Salt) was 0.06%. For the same molecule, the “Impurity B” value is, setting by setting: (storage at 25° C., day 0, listed as 3.93 Na Salt) 0.14%; under setting [5], 0.26%; under setting [6], 0.29%; under setting [7], 0.38%.
